Source: patent publication US9718868B2, “Parathyroid hormone, insulin, and related peptides conjugated to bone targeting moieties and methods and making and using thereof” (THE GOVERNORS OF THE UNIVERSITY OF ALBERTA, priority 2012, dated 2017)

System: bone volume in ovariectomized rats
Test: Change in bone volume by microCT in ovariectomized rat model of osteoporosis
Assay type: in vivo
Settings: OVX female rats, 60 μg/kg/day subcutaneous daily for 8 weeks starting 8 weeks after surgery; at 16 weeks post-ovariectomy; compared with sham, OVX-BP, OVX-PTH and weekly BP-PEG-PTH groups
Excerpt: Sixty female rats were divided into five groups and evaluated using the ovariectomy procedure (OVX): control (sham-operated; n=12), ovariectomy with bisphosphonate treatment (OVX-BP; n=12), OVX with teriparatide treatment (OVX-PTH; daily; n=12), OVX with daily BP-PEG-PTH treatment (n=12), and OVX with weekly BP-PEG-PTH treatment (n=12), where BP is 2-[(3-mercaptopropyl)thio]ethane-1,1-diyl}bis(phosphonic acid). Rats were ovariectomized at week 0 and the control group underwent a sham ovariectomy. Rats were left untreated for 8 weeks after surgery to allow for osteopenia to develop. After 8 weeks, rats in the OVX-PTH group received daily subcutaneous injections of PTH (60 μg/kg/day) for 8 weeks. Rats in the OVX-BP group received daily doses of bisphosphonate. Rats in the OVX-BP-PEG-PTH daily group received daily subcutaneous injections of BP-PEG-PTH (60 μg/kg/day). Rats in the OVX-BP-PEG-PTH weekly group received weekly subcutaneous injections of BP-PEG-PTH (60 μg/kg/week).
In vivo change in bone volume was measured by micro-computed tomography (microCT).

BP-PEG-PTH: hPTH (1-34) conjugated via Maleimide-PEG3500-NHS linker to thiol-bisphosphonate 2-[(3-mercaptopropyl)thio]ethane-1,1-diyl}bis(phosphonic acid)
In vivo change in bone volume (microCT): greatest increase in bone volume
